Experiments:
[1] = target: T1, Beta-glucuronidase (Homo sapiens) (UniProt P08236); assay: Inhibition of beta-glucuronidase (unknown origin) using p-nitrophenyl-beta-D-glucopyranosiduronic acid as substrate at 1 mM after 30 min
T1 sequence (whole entry): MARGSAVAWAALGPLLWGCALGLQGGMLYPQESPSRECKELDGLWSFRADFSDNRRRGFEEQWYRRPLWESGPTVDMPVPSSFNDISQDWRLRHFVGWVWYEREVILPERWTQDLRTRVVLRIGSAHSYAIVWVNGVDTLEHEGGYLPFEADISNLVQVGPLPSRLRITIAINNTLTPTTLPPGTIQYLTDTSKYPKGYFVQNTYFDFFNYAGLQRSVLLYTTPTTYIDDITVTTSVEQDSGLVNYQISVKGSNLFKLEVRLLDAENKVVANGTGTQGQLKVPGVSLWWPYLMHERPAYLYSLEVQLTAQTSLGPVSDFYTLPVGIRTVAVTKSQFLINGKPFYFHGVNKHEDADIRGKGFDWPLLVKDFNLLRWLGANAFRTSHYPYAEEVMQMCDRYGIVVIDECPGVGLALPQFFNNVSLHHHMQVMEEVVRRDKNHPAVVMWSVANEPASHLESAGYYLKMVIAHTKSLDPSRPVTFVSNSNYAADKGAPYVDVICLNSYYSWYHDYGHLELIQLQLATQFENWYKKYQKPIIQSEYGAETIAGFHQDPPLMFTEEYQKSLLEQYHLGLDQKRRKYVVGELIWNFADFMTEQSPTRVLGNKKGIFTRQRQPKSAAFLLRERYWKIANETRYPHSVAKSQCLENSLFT

[2] = test system: Radical scavenging activity; assay: Antioxidant activity assessed as DPPH free radical scavenging activity at 10 uM by spectrophotometric analysis; assay type: functional
[3] = Antioxidant activity assessed as reduction of K3Fe(CN)6 to Fe2+ at 10 uM after 10 min; assay type: functional; parameters: scale not given: the % may be the effect or the level left
Blood [4] = assay: Anti-inflammatory activity in Homo sapiens (human) whole blood assessed inhibition of LPS-induced TNF-alpha production at 1 uM treated 30 min before LPS challenge measured after 5 hr; assay type: functional
Blood [5] = assay: Anti-inflammatory activity in Homo sapiens (human) whole blood assessed inhibition of LPS-induced TNF-alpha production at 10 uM treated 30 min before LPS challenge measured after 5 hr; assay type: functional
Blood [6] = assay: Anti-inflammatory activity in Homo sapiens (human) whole blood assessed inhibition of LPS-induced TNF-alpha production treated 30 min before LPS challenge measured after 5 hr; assay type: functional, tissue-based
[7] = Antioxidant activity assessed as hydroxyl radical scavenging activity at 10 uM by spectrophotometric analysis; assay type: functional
[8] = target: T2, Prostaglandin G/H synthase 1 (Ovis aries) (UniProt P05979); details: at 1 mM
T2 sequence (whole entry): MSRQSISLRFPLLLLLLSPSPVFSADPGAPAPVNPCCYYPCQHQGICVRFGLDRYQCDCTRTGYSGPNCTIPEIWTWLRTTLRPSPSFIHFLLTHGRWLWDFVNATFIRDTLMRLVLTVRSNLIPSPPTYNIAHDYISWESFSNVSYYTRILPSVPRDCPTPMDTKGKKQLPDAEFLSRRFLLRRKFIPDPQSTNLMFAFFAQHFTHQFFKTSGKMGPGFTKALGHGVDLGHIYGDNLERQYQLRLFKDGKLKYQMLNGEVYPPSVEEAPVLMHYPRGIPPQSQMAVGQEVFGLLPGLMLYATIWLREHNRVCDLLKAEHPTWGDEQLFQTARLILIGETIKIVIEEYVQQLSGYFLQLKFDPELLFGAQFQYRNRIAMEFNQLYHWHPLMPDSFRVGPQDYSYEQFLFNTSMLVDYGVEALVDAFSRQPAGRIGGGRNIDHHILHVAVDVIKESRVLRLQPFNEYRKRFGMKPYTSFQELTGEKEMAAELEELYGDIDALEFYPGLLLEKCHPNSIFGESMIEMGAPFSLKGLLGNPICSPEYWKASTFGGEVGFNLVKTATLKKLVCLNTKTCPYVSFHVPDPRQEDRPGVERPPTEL
Description: Inhibition of Ovis aries (sheep) COX1 at 1 mM after 5 min by colorimetric analysis

Trypsin (Homo sapiens) = Trypsin (Homo sapiens) (UniProt P07477+P07478+P35030); assay: Inhibition of trypsin (unknown origin) assessed as hydrolysis of bovine serum albumin at 1 mM after 20 min; assay type: protein assay
[9] = target: T3, Prostaglandin G/H synthase 2 (Ovis aries) (UniProt P79208); assay: Inhibition of Ovis aries (sheep) COX2 at 1 mM after 5 min by colorimetric analysis
T3 sequence (whole entry): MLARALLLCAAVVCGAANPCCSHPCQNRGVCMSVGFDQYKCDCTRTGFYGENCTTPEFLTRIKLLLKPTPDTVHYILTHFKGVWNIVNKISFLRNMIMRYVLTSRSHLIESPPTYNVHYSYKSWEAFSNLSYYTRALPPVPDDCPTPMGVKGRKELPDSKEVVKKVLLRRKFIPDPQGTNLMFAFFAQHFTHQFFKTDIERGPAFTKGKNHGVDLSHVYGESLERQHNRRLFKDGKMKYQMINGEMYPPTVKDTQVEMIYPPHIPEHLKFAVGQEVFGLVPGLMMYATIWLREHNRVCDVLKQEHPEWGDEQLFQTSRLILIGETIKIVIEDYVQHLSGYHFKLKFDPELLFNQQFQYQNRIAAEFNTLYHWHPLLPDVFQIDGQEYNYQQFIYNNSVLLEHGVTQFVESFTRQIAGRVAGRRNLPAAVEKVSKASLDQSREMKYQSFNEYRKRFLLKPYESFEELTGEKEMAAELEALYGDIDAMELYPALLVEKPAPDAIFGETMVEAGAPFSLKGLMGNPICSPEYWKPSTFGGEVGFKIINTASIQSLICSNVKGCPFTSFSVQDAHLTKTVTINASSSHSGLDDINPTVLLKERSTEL

[10] = Homo sapiens, Blood, read-out: IC50

Compound	inhibition [1]	Activity [2]	Activity [3]	inhibition at 1 µM (Blood [4])	inhibition at 10 µM (Blood [5])	IC50 (Blood [6]; [10])	Activity [7]	inhibition [8]	inhibition (Trypsin (Homo sapiens))	inhibition [9]	IC50 (Blood [6])
O=C(O)c1ccccc1O	26.5%										
COc1cc(OC)c(C(=O)/C=C/c2ccc(Cl)cc2Cl)c(O)c1Br		17.3%	17.4%	46%	53%	8.9 µM	30.2%				
COc1cc(OC)c(C(=O)/C=C/c2cccnc2)c(O)c1Br		21.1%	16.6%	45%	85%	0.1 µM	44.1%				
O=C(O)c1cc(O)c(O)c(O)c1		91%									
COc1cc(OC)c(C(=O)/C=C/c2ccc(Cl)cc2)c(O)c1Br		18.4%	15.7%	43%	51%	1.4 µM	38.2%				
COc1cc(OC)c(C(=O)/C=C/c2cccc([N+](=O)[O-])c2)c(O)c1Br		23.7%	26.2%	31%	50%	10.1 µM	18.8%				
COc1cc(OC)c(C(=O)/C=C/c2ccccc2Cl)c(O)c1Br		15.8%	14.3%	40%	72%	15.9 µM	32.3%				
COc1ccc(/C=C/C(=O)c2c(OC)cc(OC)c(Br)c2O)c(OC)c1	41.3%	20.2%	18.4%	21%	59%	10.2 µM	28.8%	52.4%	39.5%	57.8%	
COc1cc(OC)c(C(=O)/C=C/c2ccc(Cl)c([N+](=O)[O-])c2)c(O)c1Br		14.3%	26%	34%	49%	14.2 µM					
COc1ccc(OC)c(/C=C/C(=O)c2c(OC)cc(OC)c(Br)c2O)c1		23%	22.9%	22%	57%	10.9 µM	31.6%				
C[C@H]1C[C@H]2[C@@H]3CCC4=CC(=O)C=C[C@]4(C)[C@@]3(F)[C@@H](O)C[C@]2(C)[C@@]1(O)C(=O)CO [BETAMETHASONE]				72%	87%	1 µM					
COc1cc(OC)c(C(=O)/C=C/c2cccc(Br)c2)c(O)c1Br		24.1%	19.6%	13%	57%	8.2 µM	38.2%				
CC(=O)Oc1ccccc1C(=O)O										38.5%	
COc1cc(/C=C/C(=O)c2c(OC)cc(OC)c(Br)c2O)cc(OC)c1			18.4%	25%	37%	11.4 µM	23.5%				
O=C1O[C@H]([C@@H](O)CO)C(O)=C1O			76.6%				41.2%				
COc1ccc(/C=C/C(=O)c2c(OC)cc(OC)c(Br)c2O)cc1		38.4%	34.3%	38%	53%	7.4 µM	49.4%				
COc1cc(OC)c(C(=O)/C=C/c2ccccc2C(F)(F)F)c(O)c1Br		13.7%	10%	27%	52%	3.2 µM	47%				
COc1cc(OC)c(C(=O)/C=C/c2cccc(C#N)c2)c(O)c1Br		27.4%	17.3%	26%	57%	0.7 µM	25.6%				
COc1cc(OC)c(C(=O)/C=C/c2ccccc2F)c(O)c1Br		29.9%	29.7%	24%	38%		16.8%				Not Active
COc1cc(OC)c(C(=O)/C=C/c2cccc(F)c2)c(O)c1Br		12%	12.2%	36%	63%	1.2 µM					
COc1cc(OC)c(C(=O)/C=C/c2cc[nH]c2)c(O)c1Br		26.7%	26%	42%	78%	0.6 µM					
